Source: US12258327B2, “5-membered heteroaryl-containing aminopyridine compounds as EGFR inhibitors” (YUHAN CORPORATION, priority 2021, dated 2025)
Like-named read-outs stand apart in the source and are kept apart here.

Key:
EGFR L858R/T790M/C797S = EGFR L858R/T790M/C797S (Homo sapiens, UniProt P00533, C797S/L858R/T790M); assay: Biochemical EGFR kinase assay (Lance Ultra TR-FRET), triple mutant L858R/T790M/C797S
How it was run: (§1)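 In this biochemical assay, phosphorylation after a one-hour room-temperature reaction was detected with europium-labelled anti-phosphopeptide antibody at 2 nM final concentration.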

EGFR del19/C797S = EGFR del19/C797S (Homo sapiens, UniProt P00533, C797S/DEL746-750); assay: Biochemical EGFR kinase assay (Lance Ultra TR-FRET), double mutant del19/C797S
EGFR del19/C797S, sequence (P00533 with tags, fused parts or gaps DEL746-750/C797S): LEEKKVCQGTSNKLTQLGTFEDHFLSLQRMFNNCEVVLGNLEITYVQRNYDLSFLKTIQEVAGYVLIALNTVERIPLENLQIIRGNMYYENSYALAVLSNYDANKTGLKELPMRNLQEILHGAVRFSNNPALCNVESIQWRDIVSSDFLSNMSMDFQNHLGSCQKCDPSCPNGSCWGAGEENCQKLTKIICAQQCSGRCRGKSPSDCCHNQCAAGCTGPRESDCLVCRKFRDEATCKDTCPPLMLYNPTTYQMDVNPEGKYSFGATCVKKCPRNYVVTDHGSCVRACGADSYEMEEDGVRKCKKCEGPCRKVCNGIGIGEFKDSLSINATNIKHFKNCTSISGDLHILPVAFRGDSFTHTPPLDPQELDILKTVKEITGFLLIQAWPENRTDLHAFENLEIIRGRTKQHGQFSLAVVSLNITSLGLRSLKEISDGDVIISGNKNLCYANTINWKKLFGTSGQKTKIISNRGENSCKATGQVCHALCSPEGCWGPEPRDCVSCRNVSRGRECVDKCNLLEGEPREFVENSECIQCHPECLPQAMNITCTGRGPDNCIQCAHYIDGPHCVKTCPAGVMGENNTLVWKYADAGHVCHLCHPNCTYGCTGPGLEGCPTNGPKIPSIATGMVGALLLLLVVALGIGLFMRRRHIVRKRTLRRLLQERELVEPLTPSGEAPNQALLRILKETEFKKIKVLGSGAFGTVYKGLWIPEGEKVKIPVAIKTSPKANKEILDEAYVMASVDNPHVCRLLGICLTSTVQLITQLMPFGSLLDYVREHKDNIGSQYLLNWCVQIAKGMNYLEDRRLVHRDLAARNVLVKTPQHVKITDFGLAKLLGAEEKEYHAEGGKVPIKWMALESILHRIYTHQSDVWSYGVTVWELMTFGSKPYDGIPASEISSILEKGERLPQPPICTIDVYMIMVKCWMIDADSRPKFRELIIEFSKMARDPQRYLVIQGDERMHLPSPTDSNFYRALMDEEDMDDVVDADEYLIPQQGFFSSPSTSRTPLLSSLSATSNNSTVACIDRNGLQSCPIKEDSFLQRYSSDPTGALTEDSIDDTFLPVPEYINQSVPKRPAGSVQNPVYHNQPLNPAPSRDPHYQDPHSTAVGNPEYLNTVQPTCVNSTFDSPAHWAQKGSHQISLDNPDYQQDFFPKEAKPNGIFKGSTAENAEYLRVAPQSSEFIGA
How it was run: as §1

EGFR L858R/C797S = EGFR L858R/C797S (Homo sapiens, UniProt P00533, C797S/L858R); assay: Biochemical EGFR kinase assay (Lance Ultra TR-FRET), double mutant L858R/C797S
EGFR L858R/C797S, sequence (P00533 25-1210 C797S/L858R): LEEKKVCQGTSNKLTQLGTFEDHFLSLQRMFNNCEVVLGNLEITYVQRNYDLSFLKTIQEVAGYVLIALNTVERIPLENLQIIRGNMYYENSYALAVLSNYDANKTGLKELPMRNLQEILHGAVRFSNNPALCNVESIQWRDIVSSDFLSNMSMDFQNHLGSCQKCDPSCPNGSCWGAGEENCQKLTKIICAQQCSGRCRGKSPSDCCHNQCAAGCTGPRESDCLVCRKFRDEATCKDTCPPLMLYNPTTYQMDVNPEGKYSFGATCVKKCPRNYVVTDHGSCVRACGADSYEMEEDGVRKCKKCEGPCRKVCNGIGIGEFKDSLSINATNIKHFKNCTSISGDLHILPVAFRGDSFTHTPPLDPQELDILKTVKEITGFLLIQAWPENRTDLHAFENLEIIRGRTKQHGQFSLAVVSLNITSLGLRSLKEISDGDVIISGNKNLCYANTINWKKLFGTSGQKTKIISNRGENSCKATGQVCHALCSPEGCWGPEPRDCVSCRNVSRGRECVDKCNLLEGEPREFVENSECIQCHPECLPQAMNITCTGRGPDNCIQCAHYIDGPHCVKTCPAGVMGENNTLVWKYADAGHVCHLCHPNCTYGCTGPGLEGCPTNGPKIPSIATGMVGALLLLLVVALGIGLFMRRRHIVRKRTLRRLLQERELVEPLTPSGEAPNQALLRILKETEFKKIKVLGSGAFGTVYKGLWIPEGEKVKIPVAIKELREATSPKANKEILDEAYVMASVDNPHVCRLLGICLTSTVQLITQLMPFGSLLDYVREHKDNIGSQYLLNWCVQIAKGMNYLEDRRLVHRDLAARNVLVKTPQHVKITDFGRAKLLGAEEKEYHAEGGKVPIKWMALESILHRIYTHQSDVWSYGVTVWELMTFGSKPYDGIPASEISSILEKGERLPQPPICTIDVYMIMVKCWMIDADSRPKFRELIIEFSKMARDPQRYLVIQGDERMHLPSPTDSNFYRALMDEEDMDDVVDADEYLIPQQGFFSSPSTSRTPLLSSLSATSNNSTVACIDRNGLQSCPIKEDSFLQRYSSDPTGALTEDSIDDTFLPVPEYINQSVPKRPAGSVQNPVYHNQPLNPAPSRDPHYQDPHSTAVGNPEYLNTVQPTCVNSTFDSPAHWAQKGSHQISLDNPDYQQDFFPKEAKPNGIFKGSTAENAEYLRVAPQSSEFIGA
How it was run: as §1

EGFR wildtype (WT) = EGFR wildtype (WT) (Homo sapiens, UniProt P00533); assay: Biochemical EGFR kinase assay (Lance Ultra TR-FRET), wildtype
EGFR wildtype (WT), sequence (P00533 25-1210): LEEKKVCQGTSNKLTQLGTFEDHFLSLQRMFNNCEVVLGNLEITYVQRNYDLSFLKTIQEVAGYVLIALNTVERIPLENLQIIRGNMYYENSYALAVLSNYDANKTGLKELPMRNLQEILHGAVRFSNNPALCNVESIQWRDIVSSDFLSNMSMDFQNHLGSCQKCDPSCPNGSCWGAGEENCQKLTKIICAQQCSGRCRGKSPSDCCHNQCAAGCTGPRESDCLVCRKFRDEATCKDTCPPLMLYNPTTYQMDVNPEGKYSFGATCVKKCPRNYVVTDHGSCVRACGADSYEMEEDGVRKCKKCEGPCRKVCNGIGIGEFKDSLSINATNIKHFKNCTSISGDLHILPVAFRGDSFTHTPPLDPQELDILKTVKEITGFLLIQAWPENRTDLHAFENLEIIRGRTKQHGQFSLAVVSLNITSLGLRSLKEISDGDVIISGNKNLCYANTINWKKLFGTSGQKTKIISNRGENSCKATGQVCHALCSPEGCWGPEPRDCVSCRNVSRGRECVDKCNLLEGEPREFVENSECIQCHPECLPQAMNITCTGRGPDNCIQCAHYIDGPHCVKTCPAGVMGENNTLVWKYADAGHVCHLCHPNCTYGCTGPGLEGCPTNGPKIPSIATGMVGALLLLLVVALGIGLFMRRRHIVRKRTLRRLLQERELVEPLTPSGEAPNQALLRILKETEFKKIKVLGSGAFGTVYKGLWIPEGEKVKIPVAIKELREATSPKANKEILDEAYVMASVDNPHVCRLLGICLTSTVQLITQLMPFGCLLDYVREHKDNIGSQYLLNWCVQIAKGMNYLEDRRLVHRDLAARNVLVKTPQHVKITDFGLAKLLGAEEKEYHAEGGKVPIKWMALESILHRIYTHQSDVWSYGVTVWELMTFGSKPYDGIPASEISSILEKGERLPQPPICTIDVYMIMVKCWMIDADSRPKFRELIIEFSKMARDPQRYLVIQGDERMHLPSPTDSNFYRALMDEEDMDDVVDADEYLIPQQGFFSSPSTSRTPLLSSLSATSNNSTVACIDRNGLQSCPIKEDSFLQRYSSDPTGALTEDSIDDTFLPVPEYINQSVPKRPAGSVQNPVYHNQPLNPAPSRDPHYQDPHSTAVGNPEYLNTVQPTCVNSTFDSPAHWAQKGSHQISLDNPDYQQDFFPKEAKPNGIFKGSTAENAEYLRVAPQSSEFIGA
How it was run: as §1

EGFR del19/T790M/C797S = EGFR del19/T790M/C797S (Homo sapiens, UniProt P00533, C797S/DEL746-750/T790M); assay: Biochemical EGFR kinase assay (Lance Ultra TR-FRET), triple mutant del19/T790M/C797S
How it was run: as §1

[1] = IC50 L858R/T790M/C797S (nM) 100 μM ATP, 100 μM ATP
[2] = Km ATP, read-out: IC50 L858R/T790M/C797S (nM) Km ATP
[3] = IC50 del19/C797S (nM) 100 μM ATP, 100 μM ATP
[4] = Km ATP, read-out: IC50 del19/C797S (nM) Km ATP
[5] = IC50 L858R/C797S (nM) 100 μM ATP, 100 μM ATP
[6] = Km ATP, read-out: IC50 L858R/C797S (nM) Km ATP
[7] = IC50 WT (nM) 100 μM ATP, 100 μM ATP
[8] = Km ATP, read-out: IC50 WT (nM) Km ATP
[9] = IC50 del19/T790M/C797S (nM) 100 μM ATP, 100 μM ATP
[10] = Km ATP, read-out: IC50 del19/T790M/C797S (nM) Km ATP
[11] = Km ATP, read-out: IC50 L858R/T790M/C797S, Km ATP
[12] = Km ATP, read-out: IC50 del19/C797S, Km ATP
[13] = Km ATP, read-out: IC50 L858R/C797S, Km ATP
[14] = Km ATP, read-out: IC50 WT, Km ATP
[15] = Km ATP, read-out: IC50 del19/T790M/C797S, Km ATP

EGFR L858R/T790M/C797S, sequence (P00533 25-1210 T790M/C797S/L858R): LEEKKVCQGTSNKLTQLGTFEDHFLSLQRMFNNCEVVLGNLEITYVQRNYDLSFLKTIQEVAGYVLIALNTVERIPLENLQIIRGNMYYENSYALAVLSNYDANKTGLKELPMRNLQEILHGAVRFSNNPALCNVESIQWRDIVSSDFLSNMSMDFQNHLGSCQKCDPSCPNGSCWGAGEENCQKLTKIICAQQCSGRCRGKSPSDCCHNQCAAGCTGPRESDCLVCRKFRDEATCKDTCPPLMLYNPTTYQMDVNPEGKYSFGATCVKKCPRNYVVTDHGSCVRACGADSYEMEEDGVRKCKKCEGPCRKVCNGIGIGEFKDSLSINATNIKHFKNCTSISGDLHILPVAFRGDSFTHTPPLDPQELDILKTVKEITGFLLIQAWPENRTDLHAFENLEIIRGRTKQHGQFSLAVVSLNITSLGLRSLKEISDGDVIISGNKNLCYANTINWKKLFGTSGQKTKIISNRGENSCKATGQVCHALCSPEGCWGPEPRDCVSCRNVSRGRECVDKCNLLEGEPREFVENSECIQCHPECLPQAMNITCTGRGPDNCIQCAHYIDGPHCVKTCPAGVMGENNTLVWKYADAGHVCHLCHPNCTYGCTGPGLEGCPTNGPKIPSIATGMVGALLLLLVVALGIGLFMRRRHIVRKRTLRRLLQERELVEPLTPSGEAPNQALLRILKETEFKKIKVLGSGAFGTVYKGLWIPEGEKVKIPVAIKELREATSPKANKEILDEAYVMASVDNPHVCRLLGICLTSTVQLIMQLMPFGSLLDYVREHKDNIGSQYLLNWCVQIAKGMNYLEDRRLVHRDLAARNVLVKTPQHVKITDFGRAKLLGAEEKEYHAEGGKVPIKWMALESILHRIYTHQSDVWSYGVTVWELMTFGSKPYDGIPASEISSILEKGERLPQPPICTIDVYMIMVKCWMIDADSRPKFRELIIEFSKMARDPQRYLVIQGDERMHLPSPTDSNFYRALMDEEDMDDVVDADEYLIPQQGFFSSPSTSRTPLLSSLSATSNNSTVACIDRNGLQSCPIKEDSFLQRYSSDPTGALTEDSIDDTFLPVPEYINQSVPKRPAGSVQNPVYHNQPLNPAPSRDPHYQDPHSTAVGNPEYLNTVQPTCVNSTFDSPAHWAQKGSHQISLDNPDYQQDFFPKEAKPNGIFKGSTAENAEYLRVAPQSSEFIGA

SMILES	IC50 (EGFR L858R/T790M/C797S; [1]) [nM]	IC50 (EGFR L858R/T790M/C797S; [2]) [nM]	IC50 (EGFR del19/C797S; [3]) [nM]	IC50 (EGFR del19/C797S; [4]) [nM]	IC50 (EGFR L858R/C797S; [5]) [nM]	IC50 (EGFR L858R/C797S; [6]) [nM]	IC50 (EGFR wildtype (WT); [7]) [nM]	IC50 (EGFR wildtype (WT); [8]) [nM]	IC50 (EGFR del19/T790M/C797S; [9]) [nM]	IC50 (EGFR del19/T790M/C797S; [10]) [nM]	IC50 (EGFR L858R/T790M/C797S; [11]) [nM]	IC50 (EGFR del19/C797S; [12]) [nM]	IC50 (EGFR L858R/C797S; [13]) [nM]	IC50 (EGFR wildtype (WT); [14]) [nM]	IC50 (EGFR del19/T790M/C797S; [15]) [nM]
CO[C@H]1CCN(c2nccc(Nc3cc(N[C@H]4CC[C@@](C)(O)CC4)c(-c4ccn(C(F)F)n4)cn3)n2)C[C@H]1F [Example 111, (1s,4s)-4-((5-(1-(Difluoromethyl)-1H-pyrazol-3-yl)-2-((2-((3R,4S)-3-fluoro-4-methoxypiperidin-1-yl)pyrimidin-4-yl)amino)pyridin-4-yl)amino)-1-methylcyclohexan-1-ol]	0.2	0.1	253	86.8	67.2	19.7	> 10000	53.7	1.6	1.4					
CN(CC(F)F)C[C@H]1CC[C@@H](Nc2cc(Nc3ccnc(-c4cnn(S(=O)(=O)C5CC5)c4)n3)ncc2-c2cc(C(F)(F)F)n(C)n2)CC1 [Example 259, N^2-(2-(1-(Cyclopropylsulfonyl)-1H-pyrazol-4-yl)pyrimidin-4-yl)-N^4-((1s,4s)-4-(((2,2-difluoroethyl)(methyl)amino)methyl)cyclohexyl)-5-(1-methyl-5-(trifluoromethyl)-1H-pyrazol-3-yl)pyridine-2,4-diamine]	63.9		151		819		> 10000		172						
O=S(=O)(C1CC1)n1cc(-c2nccc(Nc3cc(N[C@H]4CC[C@@H](C(F)F)CC4)c(-c4ccn(C(F)F)n4)cn3)n2)cn1 [Example 157, N^2-(2-(1-(Cyclopropylsulfonyl)-1H-pyrazol-4-yl)pyrimidin-4-yl)-5-(1-(difluoromethyl)-1H-pyrazol-3-yl)-N^4-((1s,4s)-4-(difluoromethyl)cyclohexyl)pyridine-2,4-diamine]		9.7		125		55.7		408		30.9					
Cc1nn(CC(F)(F)F)cc1-c1nccc(Nc2cc(N[C@H]3CC[C@@](C)(O)CC3)c(-c3ccn(C(F)F)n3)nn2)n1 [Example 375, (1s,4s)-4-((3-(1-(Difluoromethyl)-1H-pyrazol-3-yl)-6-((2-(3-methyl-1-(2,2,2-trifluoroethyl)-1H-pyrazol-4-yl)pyrimidin-4-yl)amino)pyridazin-4-yl)amino)-1-methylcyclohexan-1-ol]											11.1	1150	51.4	2290	16.4
CC(C)(O)[C@H]1CC[C@@H](Nc2cc(Nc3ccnc(-c4cnn(S(=O)(=O)C5CC5)c4)n3)ncc2-c2ccn(CC(F)(F)F)n2)CC1 [Example 265, 2-((1s,4s)-4-((2-((2-(1-(Cyclopropylsulfonyl)-1H-pyrazol-4-yl)pyrimidin-4-yl)amino)-5-(1-(2,2,2-trifluoroethyl)-1H-pyrazol-3-yl)pyridin-4-yl)amino)cyclohexyl)propan-2-ol]	7.4		12.2	11.8	187	6.6	> 10000	86.8	5.4						
O=S(=O)(C1CC1)n1cc(-c2nccc(Nc3cc(N[C@H]4CC[C@@H](NCCF)CC4)c(-c4csc(N5CCOCC5)n4)cn3)n2)cn1 [Example 126, N^2-(2-(1-(Cyclopropylsulfonyl)-1H-pyrazol-4-yl)pyrimidin-4-yl)-N^4-((1s,4s)-4-((2-fluoroethyl)amino)cyclohexyl)-5-(2-morpholinothiazol-4-yl)pyridine-2,4-diamine]	1.3	0.4	30.3	21	379		> 10000	112	0.8	0.7					
O=S(=O)(C1CC1)n1cc(-c2nccc(Nc3cc(NC4CCC(CCO)CC4)c(-c4ccn(C(F)F)n4)cn3)n2)cn1 (stereo not drawn) [Example 133, 2-((1r,4r)-4-((2-((2-(1-(Cyclopropylsulfonyl)-1H-pyrazol-4-yl)pyrimidin-4-yl)amino)-5-(1-(difluoromethyl)-1H-pyrazol-3-yl)pyridin-4-yl)amino)cyclohexyl)ethan-1-ol]	3.2	0.1	1.4	0.3	99.3	1	> 10000	92.1	0.5	0.3					
CN1CCC(n2ccc(-c3cnc(Nc4ccnc(-c5cnn(CC(F)F)c5)n4)cc3N[C@H]3CC[C@@](C)(O)CC3)n2)CC1 [Example 342, (1s,4s)-4-((2-((2-(1-(2,2-Difluoroethyl)-1H-pyrazol-4-yl)pyrimidin-4-yl)amino)-5-(1-(1-methylpiperidin-4-yl)-1H-pyrazol-3-yl)pyridin-4-yl)amino)-1-methylcyclohexan-1-ol]											0.1	1.8	1.3	2.7	0.2
C[C@]1(O)CC[C@@H](Nc2cc(Nc3ccnc(-c4cnn(CC5CC5)c4)n3)ncc2-c2ccn(C(F)F)n2)CC1 [Example 141, (1s,4s)-4-((2-((2-(1-(Cyclopropylmethyl)-1H-pyrazol-4-yl)pyrimidin-4-yl)amino)-5-(1-(difluoromethyl)-1H-pyrazol-3-yl)pyridin-4-yl)amino)-1-methylcyclohexan-1-ol]	3.2		111		198		> 10000		15.8						
O=S(=O)(C1CC1)n1cc(-c2nccc(Nc3cc(N[C@H]4CC[C@@H](O)CC4)c(-c4csc(C(F)(F)F)n4)cn3)n2)cn1 [Example 81, (1s,4s)-4-((2-((2-(1-(Cyclopropylsulfonyl)-1H-pyrazol-4-yl)pyrimidin-4-yl)amino)-5-(2-(trifluoromethyl)thiazol-4-yl)pyridin-4-yl)amino)cyclohexan-1-ol]	1.2		3.4		4.8		1240		1.1						
CC(Nc1cc(Nc2ccnc(-c3cnn(S(=O)(=O)C4CC4)c3)n2)ncc1-c1ccn(C(F)F)n1)C(F)F (stereo not drawn) [Example 213, N^2-(2-(1-(Cyclopropylsulfonyl)-1H-pyrazol-4-yl)pyrimidin-4-yl)-5-(1-(difluoromethyl)-1H-pyrazol-3-yl)-N^4-(1,1-difluoropropan-2-yl)pyridine-2,4-diamine]		2.7		370		123		488		3.4					
CN(C)S(=O)(=O)n1cc(-c2nccc(Nc3cc(N[C@H]4CC[C@@](C)(O)CC4)c(-c4cc(C(F)(F)F)n(C)n4)cn3)n2)cn1 [Example 330, 4-(4-((4-(((1s,4s)-4-Hydroxy-4-methylcyclohexyl)amino)-5-(1-methyl-5-(trifluoromethyl)-1H-pyrazol-3-yl)pyridin-2-yl)amino)pyrimidin-2-yl)-N,N-dimethyl-1H-pyrazole-1-sulfonamide]	3.9	1.1	35.1	15.7	63.3	1.6	> 10000	65.3	2.2	2.6					
C=CCCS(=O)(=O)n1cc(-c2nccc(Nc3cc(N[C@H]4CC[C@@](C)(O)CC4)c(-c4ccn(C(F)F)n4)cn3)n2)cn1 [Example 117, (1s,4s)-4-((2-((2-(1-(But-3-en-1-ylsulfonyl)-1H-pyrazol-4-yl)pyrimidin-4-yl)amino)-5-(1-(difluoromethyl)-1H-pyrazol-3-yl)pyridin-4-yl)amino)-1-methylcyclohexan-1-ol]		0.5		0.8		0.2		1.6		0.5					
